This is an account of results in patent US20140249135A1, “PIM KINASE INHIBITORS AND METHODS OF THEIR USE” (NOVARTIS AG, priority 2007, published 2014).

One may read the IC50 as the concentration needed to halve the response being measured.

What all share (type): biochemical
One assay deals with Pim2 kinase (Homo sapiens, UniProt Q9P1W9). Put plainly: Pim2 ATP depletion assay.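 Note: Luciferase-based luminescent readout of ATP remaining after PIM2 phosphorylates a BAD peptide, final 5 nM enzyme, 4 µM ATP, 10 µM peptide, 2.5% DMSO, run to roughly half ATP consumption.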 To be noted: read-out: PIM2 IC50.
Chain of Pim2 kinase (Q9P1W9 whole entry): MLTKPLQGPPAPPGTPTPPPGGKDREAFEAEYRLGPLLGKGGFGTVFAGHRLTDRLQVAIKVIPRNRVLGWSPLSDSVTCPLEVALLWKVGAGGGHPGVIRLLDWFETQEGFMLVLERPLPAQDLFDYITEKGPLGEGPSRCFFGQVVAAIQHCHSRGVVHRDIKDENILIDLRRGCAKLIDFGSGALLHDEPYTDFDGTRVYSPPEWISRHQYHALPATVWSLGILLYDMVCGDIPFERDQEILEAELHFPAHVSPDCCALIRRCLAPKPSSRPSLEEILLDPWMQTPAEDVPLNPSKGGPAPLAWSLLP
Another assay has as its target Pim3 kinase (Homo sapiens, UniProt Q86V86). Put plainly: Pim3 ATP depletion assay. To be noted: read-out: PIM3 IC50.
The next assay deals with Pim1 kinase (Homo sapiens, UniProt P11309). Kind of assay: Pim1 ATP depletion assay.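 Note: Luciferase-luciferin luminescence readout of residual ATP after PIM1 transfers phosphate to a peptide substrate, 40 µM ATP added, reaction run to roughly half ATP consumption.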 To be noted: Pim1 ATP depletion assay; read-out: PIM1 IC50.
Chain of Pim1 kinase (P11309 whole entry): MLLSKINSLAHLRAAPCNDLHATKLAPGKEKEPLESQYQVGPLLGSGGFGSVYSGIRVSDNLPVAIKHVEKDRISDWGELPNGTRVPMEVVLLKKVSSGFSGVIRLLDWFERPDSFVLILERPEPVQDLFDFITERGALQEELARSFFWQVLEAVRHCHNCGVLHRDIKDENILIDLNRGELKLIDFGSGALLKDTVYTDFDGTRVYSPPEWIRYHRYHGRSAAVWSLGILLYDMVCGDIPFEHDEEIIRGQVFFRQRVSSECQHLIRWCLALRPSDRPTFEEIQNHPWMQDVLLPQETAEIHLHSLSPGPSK

For the compound `Nc1ccc(-c2ccccc2)nc1C(=O)Nc1cnccc1N1C[C@@H](N)C[C@@H](F)C1` [Example 578, 3-Amino-6-phenyl-pyridine-2-carboxylic acid (3-amino-5-fluoro-3,4,5,6-tetrahydro-2H-[1,4′]bipyridinyl-3′-yl)-amide], the concentration for half-maximal inhibition (IC50) at Pim2 kinase, at Pim3 kinase and at Pim1 kinase was below 1000 nM each time.
As for `CCCOc1ccc(F)c(-c2ccc(N)c(C(=O)Nc3cnccc3N3C[C@@H](N)C[C@H](O)C3)n2)c1` [Example 581, 3-Amino-6-(2-fluoro-5-propoxy-phenyl)-pyridine-2-carboxylic acid (3-amino-5-hydroxy-3,4,5,6-tetrahydro-2H-[1,4′]bipyridinyl-3′-yl)-amide], the 50% inhibitory concentration (IC50) at Pim2 kinase, on Pim3 kinase and on Pim1 kinase was below 1000 nM throughout.
`Nc1ccc(-c2ccccc2)nc1C(=O)Nc1cnccc1N1C[C@@H](N)C[C@H](O)C1` [Example 582, 3-Amino-6-phenyl-pyridine-2-carboxylic acid (3-amino-5-hydroxy-3,4,5,6-tetrahydro-2H-[1,4′]bipyridinyl-3′-yl)-amide]: the IC50 at Pim2 kinase was 1000 to 10000 nM; at Pim3 kinase, below 1000 nM; on Pim1 kinase, below 1000 nM.
Consider `COc1ncccc1-c1ccc(N)c(C(=O)Nc2cnccc2-c2ccccc2C)n1` [Example 584, 5-amino-2′-methoxy-[2,3′]bi-pyridinyl-6-carboxylic acid (4-o-tolyl-pyridin-3-yl)-amide], for which the figures for the IC50 at Pim2 kinase, on Pim3 kinase and at Pim1 kinase were 1000 to 10000 nM, below 1000 nM and below 1000 nM, respectively.
On to `Cc1ccccc1-c1ccncc1NC(=O)c1nc(-c2c(F)cccc2F)ccc1N` [Example 585, 3-amino-6-(2,6-difluoro-phenyl)-pyridine-2-carboxylic acid (4-o-tolyl-pyridin-3-yl)-amide], for which the half-inhibitory concentration (IC50) at Pim2 kinase, on Pim3 kinase and at Pim1 kinase was below 1000 nM each time.
On to `Cc1ccccc1-c1ccncc1NC(=O)c1nc(-c2ccccc2F)ccc1N` [Example 586, 3-amino-6-(2-fluoro-phenyl)-pyridine-2-carboxylic acid (4-o-tolyl-pyridin-3-yl)-amide], for which the values for the IC50 on Pim2 kinase, on Pim3 kinase and at Pim1 kinase were 1000 to 10000 nM, below 1000 nM and below 1000 nM, respectively.
Turning to `Nc1ccc(-c2c(F)cccc2F)nc1C(=O)Nc1cnccc1N1CCCCC1` [Example 588, 3-amino-6-(2,6-difluoro-phenyl)-pyridine-2-carboxylic acid (3,4,5,6-tetrahydro-2H-[1,4′]bipyridinyl-3′-yl)-amide], the IC50 on Pim2 kinase, at Pim3 kinase and at Pim1 kinase was below 1000 nM throughout.
Regarding `Nc1ccc(-c2ccccc2F)nc1C(=O)Nc1cnccc1N1CCCCC1` [Example 589, 3-amino-6-(2-fluoro-phenyl)-pyridine-2-carboxylic acid (3,4,5,6-tetrahydro-2H-[1,4′]bipyridinyl-3′-yl)-amide], the concentration for half-maximal inhibition (IC50) at Pim2 kinase, on Pim3 kinase and on Pim1 kinase was below 1000 nM in each case.
With `Nc1ncc(Br)nc1C(=O)Nc1cnccc1N1CCCC(N(Cc2ccccc2)Cc2ccccc2)C1` (stereo not drawn) [Example 599, 3-amino-6-bromo-pyrazine-2-carboxylic acid (3-dibenzylamino-3,4,5,6-tetrahydro-2H-[1,4′]bi-pyridinyl-3′-yl)-amide], the IC50 at Pim2 kinase was 1000 to 10000 nM; at Pim3 kinase, 1000 to 10000 nM; on Pim1 kinase, below 1000 nM.
As for `Nc1ccc(-c2ccccc2F)nc1C(=O)Nc1cnccc1-c1cncc(F)c1` [Example 601, 3-amino-N-(5-fluoro-3,4′-bipyridin-3′-yl)-6-(2-fluorophenyl)pyridine-2-carboxamide], the IC50 on Pim2 kinase, at Pim3 kinase and on Pim1 kinase was below 1000 nM throughout.
As for `Nc1ccc(-c2ccccc2F)nc1C(=O)Nc1cnccc1-c1cncnc1` [Example 602, 3-amino-6-(2-fluorophenyl)-N-(4-pyrimidin-5-ylpyridin-3-yl)pyridine-2-carboxamide], the IC50 is 1000 to 10000 nM on Pim2 kinase, below 1000 nM at Pim3 kinase and below 1000 nM at Pim1 kinase.
For the compound `Nc1ccc(-c2ccccc2F)nc1C(=O)Nc1cnccc1-c1cnc(N)c(C(F)(F)F)c1` [Example 603, 3-amino-N-[6-amino-5-(tri-fluoromethyl)-3,4′-bipyridin-3′-yl]-6-(2-fluorophenyl)pyridine-2-carboxamide], the IC50 at Pim2 kinase, at Pim3 kinase and on Pim1 kinase was below 1000 nM in each case.
In the case of `Nc1ccc(-c2ccncc2NC(=O)c2nc(-c3ccccc3F)ccc2N)cn1` [Example 604, 3-amino-N-(6-amino-3,4′-bipyridin-3′-yl)-6-(2-fluoro-phenyl)pyridine-2-carboxamide], the 50% inhibitory concentration (IC50) on Pim2 kinase, at Pim3 kinase and on Pim1 kinase was below 1000 nM each time.
Consider `Nc1cc(-c2ccncc2NC(=O)c2nc(-c3ccccc3F)ccc2N)ccn1` [Example 605, 3-amino-N-(2′-amino-4,4′-bipyridin-3-yl)-6-(2-fluorophenyl)pyridine-2-carboxamide], for which the IC50 at Pim2 kinase, on Pim3 kinase and at Pim1 kinase was below 1000 nM each time.
`Nc1ccc(-c2ccccc2F)nc1C(=O)Nc1cnccc1-c1ccncc1` [Example 606, 3-amino-N-4,4′-bipyridin-3-yl-6-(2-fluorophenyl)-pyridine-2-carboxamide]: the concentration for half-maximal inhibition (IC50) on Pim2 kinase, on Pim3 kinase and on Pim1 kinase was below 1000 nM each time.
In the case of `Nc1ccc(-c2c(F)cccc2F)nc1C(=O)Nc1cnccc1-c1cc(F)nc(F)c1` [Example 607, 3-amino-N-(2′,6′-difluoro-4,4′-bipyridin-3-yl)-6-(2,6-difluorophenyl)pyridine-2-carboxamide], the IC50 on Pim2 kinase, on Pim3 kinase and on Pim1 kinase was below 1000 nM in each case.
Turning to `COc1cc(-c2ccncc2NC(=O)c2nc(-c3c(F)cccc3F)ccc2N)cc(N)n1` [Example 608, 3-Amino-6-(2,6-difluoro-phenyl)-pyridine-2-carboxylic acid (6′-amino-2′-methoxy-[4,4′]bi-pyridinyl-3-yl)-amide], the half-inhibitory concentration (IC50) at Pim2 kinase, at Pim3 kinase and on Pim1 kinase was below 1000 nM each time.
As for `COc1cncc(-c2ccncc2NC(=O)c2nc(-c3ccccc3F)ccc2N)c1` [Example 609, 3-amino-6-(2-fluorophenyl)-N-(5-methoxy-3,4′-bipyridin-3′-yl)pyridine-2-carboxamide], the IC50 on Pim2 kinase, on Pim3 kinase and on Pim1 kinase was below 1000 nM each time.
In the case of `COc1cnccc1-c1ccncc1NC(=O)c1nc(-c2ccccc2F)ccc1N` [Example 610, 3-amino-6-(2-fluorophenyl)-N-(3′-methoxy-4,4′-bipyridin-3-yl)pyridine-2-carboxamide], the half-maximal inhibitory concentration (IC50) at Pim2 kinase, at Pim3 kinase and on Pim1 kinase was below 1000 nM each time.
`COc1ncccc1-c1ccncc1NC(=O)c1nc(-c2ccccc2F)ccc1N` [Example 611, 3-amino-6-(2-fluorophenyl)-N-(2-methoxy-3,4′-bipyridin-3′-yl)pyridine-2-carboxamide]: the IC50 on Pim2 kinase, at Pim3 kinase and on Pim1 kinase was below 1000 nM throughout.
In the case of `Cc1cnccc1-c1ccncc1NC(=O)c1nc(-c2ccccc2F)ccc1N` [Example 613, 3-amino-6-(2-fluorophenyl)-N-(3′-methyl-4,4′-bipyridin-3-yl)pyridine-2-carboxamide], the half-maximal inhibitory concentration (IC50) on Pim2 kinase, on Pim3 kinase and on Pim1 kinase was below 1000 nM each time.
As to `Nc1ccc(-c2ccccc2F)nc1C(=O)Nc1cnccc1-c1ccncc1Cl` [Example 615, 3-amino-N-(3′-chloro-4,4′-bipyridin-3-yl)-6-(2-fluorophenyl)pyridine-2-carboxamide], the 50% inhibitory concentration (IC50) at Pim2 kinase, at Pim3 kinase and at Pim1 kinase was below 1000 nM throughout.
As for `Nc1ccc(-c2ccccc2F)nc1C(=O)Nc1cnccc1-c1ccncc1F` [Example 616, 3-amino-N-(3′-fluoro-4,4′-bipyridin-3-yl)-6-(2-fluorophenyl)pyridine-2-carboxamide], the IC50 on Pim2 kinase, on Pim3 kinase and at Pim1 kinase was below 1000 nM throughout.
Take `Nc1cc(-c2ccncc2NC(=O)c2nc(-c3c(F)cccc3F)ccc2N)ccn1` [Example 617, 3-amino-N-(2′-amino-4,4′-bipyridin-3-yl)-6-(2,6-difluorophenyl)pyridine-2-carboxamide]: the IC50 at Pim2 kinase, at Pim3 kinase and on Pim1 kinase was below 1000 nM throughout.
`N#Cc1cc(-c2ccncc2NC(=O)c2nc(-c3c(F)cccc3F)ccc2N)ccn1` [Example 618, 3-amino-N-(2′-cyano-4,4′-bipyridin-3-yl)-6-(2,6-difluorophenyl)pyridine-2-carboxamide]: the IC50 on Pim2 kinase, on Pim3 kinase and at Pim1 kinase was below 1000 nM each time.
As to `Cc1cc(-c2ccncc2NC(=O)c2nc(-c3c(F)cccc3F)c(F)cc2N)cc(N)n1` [Example 619, 3-amino-N-(2′-amino-6′-methyl-4,4′-bipyridin-3-yl)-6-(2,6-difluorophenyl)-5-fluoropyridine-2-carboxamide], the 50% inhibitory concentration (IC50) at Pim2 kinase, at Pim3 kinase and at Pim1 kinase was below 1000 nM in each case.
With `CCc1cc(-c2ccncc2NC(=O)c2nc(-c3c(F)cccc3F)ccc2N)cc(N)n1` [Example 620, 3-Amino-6-(2,6-difluoro-phenyl)-pyridine-2-carboxylic acid (6′-amino-2′-ethyl-[4,4′]bipyridinyl-3-yl)-amide], the IC50 on Pim2 kinase, on Pim3 kinase and at Pim1 kinase was below 1000 nM throughout.
In the case of `Nc1ccc(-c2c(F)cccc2F)nc1C(=O)Nc1cnccc1-c1cc(Cl)nc(C(F)(F)F)c1` [Example 621, 3-amino-N-[2′-chloro-6′-(trifluoromethyl)-4,4′-bipyridin-3-yl]-6-(2,6-difluorophenyl)pyridine-2-carboxamide], the half-inhibitory concentration (IC50) on Pim2 kinase, on Pim3 kinase and on Pim1 kinase was below 1000 nM each time.
